# Measured values taken from ChEMBL document CHEMBL3046358, “Multiple Pro-197 substitutions in the acetolactate synthase of rigid ryegrass (Lolium rigidum) and their impact on chlorsulfuron activity and plant growth” (Crop Prot, 2012).
# Assays:
# Lolium rigidum [1] = assay: Herbicidal activity against Lolium rigidum accession A12 assessed as emergence rate applied at 1 times pre-emergence recommended rate relative to untreated control; assay type: functional
# Lolium rigidum [2] = assay: Herbicidal activity against Lolium rigidum accession A04 assessed as emergence rate applied at 1 times pre-emergence recommended rate applied in pots where terbufos had been incorporated into the soil relative to untreated control; assay type: functional
# Lolium rigidum [3] = assay: Herbicidal activity against Lolium rigidum accession A12 assessed as fresh weight reduction applied at 1 times pre-emergence recommended rate applied in pots where terbufos had been incorporated into the soil relative to untreated control; assay type: functional; parameters: scale not given: the % may be the effect or the level left
# Lolium rigidum [4] = assay: Herbicidal activity against Lolium rigidum accession A06 assessed as fresh weight reduction applied at 4 times pre-emergence recommended rate relative to untreated control; assay type: functional; parameters: scale not given: the % may be the effect or the level left
# Lolium rigidum [5] = assay: Herbicidal activity against Lolium rigidum accession A03 assessed as emergence rate applied at 1 times pre-emergence recommended rate applied in pots where terbufos had been incorporated into the soil relative to untreated control; assay type: functional
# Lolium rigidum [6] = assay: Herbicidal activity against Lolium rigidum accession A10 assessed as emergence rate applied at 1 times pre-emergence recommended rate relative to untreated control; assay type: functional
# Lolium rigidum [7] = assay: Herbicidal activity against Lolium rigidum accession A14 assessed as fresh weight reduction applied at 1 times pre-emergence recommended rate relative to untreated control; assay type: functional; parameters: scale not given: the % may be the effect or the level left
# Lolium rigidum [8] = assay: Herbicidal activity against Lolium rigidum accession A04 assessed as fresh weight reduction applied at 1 times pre-emergence recommended rate applied in pots where terbufos had been incorporated into the soil relative to untreated control; assay type: functional; parameters: scale not given: the % may be the effect or the level left
# Acetolactate synthase [9] = biological target: T1, Acetolactate synthase (Lolium rigidum, UniProt A7XBP7); assay: Inhibition of acetolactate synthase Ala-197/Ala-197 mutant in Lolium rigidum accession A06 leaves extracts by acetolactate production assay; details: read-out: I50
# Acetolactate synthase [10] = biological target: Acetolactate synthase (Lolium rigidum, UniProt A7XBP7, P197R/P197S); assay: Inhibition of acetolactate synthase Pro-197/Arg-197 or Pro-197/Ser-197 or Pro/Val or Ala/Leu mutant in Lolium rigidum accession A17 leaves extracts by acetolactate production assay; details: read-out: I50
# Acetolactate synthase [11] = biological target: T1, Acetolactate synthase; assay: Inhibition of acetolactate synthase Pro-197/Pro-197 mutant in Lolium rigidum accession A09 leaves extracts by acetolactate production assay; details: read-out: I50
# [12] = biological target: T2, Acetolactate synthase (Lolium rigidum) (UniProt A7XBP7); assay: Resistance index, ratio of I50 for acetolactate synthase Ala-197/Ala-197 mutant in Lolium rigidum accession A05 leaves extracts to I50 for acetolactate synthase in Lolium rigidum accession A01 leaves extracts
# T2 sequence (whole entry): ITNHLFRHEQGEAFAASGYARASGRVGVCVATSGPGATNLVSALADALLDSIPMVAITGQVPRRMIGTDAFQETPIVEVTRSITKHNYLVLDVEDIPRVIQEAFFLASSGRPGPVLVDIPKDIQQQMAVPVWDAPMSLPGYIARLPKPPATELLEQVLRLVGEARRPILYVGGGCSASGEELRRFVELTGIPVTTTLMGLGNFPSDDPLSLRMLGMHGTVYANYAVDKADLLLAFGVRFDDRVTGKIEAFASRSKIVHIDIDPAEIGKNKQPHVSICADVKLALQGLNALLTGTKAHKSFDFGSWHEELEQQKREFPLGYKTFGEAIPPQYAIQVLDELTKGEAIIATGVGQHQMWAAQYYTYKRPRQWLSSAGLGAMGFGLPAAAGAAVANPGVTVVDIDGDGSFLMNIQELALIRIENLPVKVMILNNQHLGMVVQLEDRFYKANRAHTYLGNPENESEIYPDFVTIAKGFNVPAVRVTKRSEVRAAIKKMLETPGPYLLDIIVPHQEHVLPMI
# Lolium rigidum [13] = assay: Herbicidal activity against Lolium rigidum accession A06 assessed as fresh weight reduction applied at 1 times pre-emergence recommended rate applied in pots where terbufos had been incorporated into the soil relative to untreated control; assay type: functional; parameters: scale not given: the % may be the effect or the level left
# Acetolactate synthase [14] = biological target: T1, Acetolactate synthase; assay: Inhibition of acetolactate synthase Ala-197/Ala-197 mutant in Lolium rigidum accession A05 leaves extracts by acetolactate production assay; details: read-out: I50
# Acetolactate synthase [15] = biological target: T1, Acetolactate synthase; assay: Inhibition of acetolactate synthase Pro-197/Pro-197 mutant in Lolium rigidum accession A10 leaves extracts by acetolactate production assay; details: read-out: I50
# Lolium rigidum [16] = assay: Herbicidal activity against Lolium rigidum accession A05 assessed as fresh weight reduction applied at 1 times pre-emergence recommended rate applied in pots where terbufos had been incorporated into the soil relative to untreated control; assay type: functional; parameters: scale not given: the % may be the effect or the level left
# Lolium rigidum [17] = assay: Herbicidal activity against Lolium rigidum accession A15 assessed as emergence rate applied at 1 times pre-emergence recommended rate applied in pots where terbufos had been incorporated into the soil relative to untreated control; assay type: functional
# Lolium rigidum [18] = assay: Herbicidal activity against Lolium rigidum accession A07 assessed as emergence rate applied at 1 times pre-emergence recommended rate relative to untreated control; assay type: functional
# Lolium rigidum [19] = assay: Herbicidal activity against Lolium rigidum accession A04 assessed as emergence rate applied at 1 times pre-emergence recommended rate relative to untreated control; assay type: functional
# Lolium rigidum [20] = assay: Herbicidal activity against Lolium rigidum accession A01 assessed as emergence rate applied at 1 times pre-emergence recommended rate applied in pots where terbufos had been incorporated into the soil relative to untreated control; assay type: functional
# Acetolactate synthase [21] = biological target: T1, Acetolactate synthase; assay: Inhibition of acetolactate synthase Leu-197/Leu-197 mutant in Lolium rigidum accession A18 leaves extracts by acetolactate production assay; details: read-out: I50
# Lolium rigidum [22] = assay: Herbicidal activity against Lolium rigidum accession A02 assessed as emergence rate applied at 1 times pre-emergence recommended rate applied in pots where terbufos had been incorporated into the soil relative to untreated control; assay type: functional
# [23] = biological target: T2, Acetolactate synthase (Lolium rigidum); assay: Resistance index, ratio of I50 for acetolactate synthase Ala-197/Ala-197 mutant in Lolium rigidum accession A19 leaves extracts to I50 for acetolactate synthase in Lolium rigidum accession A01 leaves extracts
# Acetolactate synthase [24] = biological target: Acetolactate synthase (Lolium rigidum, UniProt A7XBP7, P197L); assay: Inhibition of acetolactate synthase Pro-197/Leu-197 mutant in Lolium rigidum accession A07 leaves extracts by acetolactate production assay; details: read-out: I50
# Lolium rigidum [25] = assay: Herbicidal activity against Lolium rigidum accession A11 assessed as emergence rate applied at 1 times pre-emergence recommended rate relative to untreated control; assay type: functional
# Lolium rigidum [26] = assay: Herbicidal activity against Lolium rigidum accession A07 assessed as emergence rate applied at 4 times pre-emergence recommended rate relative to untreated control; assay type: functional
# Lolium rigidum [27] = assay: Herbicidal activity against Lolium rigidum accession A05 assessed as fresh weight reduction applied at 1 times pre-emergence recommended rate relative to untreated control; assay type: functional; parameters: scale not given: the % may be the effect or the level left
# Lolium rigidum [28] = assay: Herbicidal activity against Lolium rigidum accession A05 assessed as fresh weight reduction applied at 4 times pre-emergence recommended rate relative to untreated control; assay type: functional; parameters: scale not given: the % may be the effect or the level left
# [29] = biological target: T2, Acetolactate synthase (Lolium rigidum); assay: Resistance index, ratio of I50 for acetolactate synthase Ala-197/Ala-197 mutant in Lolium rigidum accession A20 leaves extracts to I50 for acetolactate synthase in Lolium rigidum accession A01 leaves extracts
# Lolium rigidum [30] = assay: Herbicidal activity against Lolium rigidum accession A08 assessed as emergence rate applied at 4 times pre-emergence recommended rate relative to untreated control; assay type: functional
# Lolium rigidum [31] = assay: Herbicidal activity against Lolium rigidum accession A02 assessed as emergence rate applied at 4 times pre-emergence recommended rate relative to untreated control; assay type: functional
# Lolium rigidum [32] = assay: Herbicidal activity against Lolium rigidum accession A08 assessed as fresh weight reduction applied at 4 times pre-emergence recommended rate relative to untreated control; assay type: functional; parameters: scale not given: the % may be the effect or the level left
# Lolium rigidum [33] = assay: Herbicidal activity against Lolium rigidum accession A07 assessed as fresh weight reduction applied at 1 times pre-emergence recommended rate applied in pots where terbufos had been incorporated into the soil relative to untreated control; assay type: functional; parameters: scale not given: the % may be the effect or the level left
smiles,measurement,setting,value
COc1nc(C)nc(NC(=O)NS(=O)(=O)c2ccccc2Cl)n1 [CHLORSULFURON],Activity,Lolium rigidum [1],2%
same,Activity,Lolium rigidum [2],2%
same,Activity,Lolium rigidum [3],100%
same,Activity,Lolium rigidum [4],11%
same,Activity,Lolium rigidum [5],1%
same,Activity,Lolium rigidum [6],68%
same,Activity,Lolium rigidum [7],94%
same,Activity,Lolium rigidum [8],96%
same,IC50,Acetolactate synthase [9],14.1 µM
same,IC50,Acetolactate synthase [10],870 nM
same,IC50,Acetolactate synthase [11],30 nM
same,Ratio,[12],163
same,Activity,Lolium rigidum [13],0%
same,IC50,Acetolactate synthase [14],4.89 µM
same,IC50,Acetolactate synthase [15],40 nM
same,Activity,Lolium rigidum [16],0%
same,Activity,Lolium rigidum [17],0%
same,Activity,Lolium rigidum [18],89%
same,Activity,Lolium rigidum [19],2%
same,Activity,Lolium rigidum [20],1%
same,IC50,Acetolactate synthase [21],1620 nM
same,Activity,Lolium rigidum [22],0%
same,Ratio,[23],620
same,IC50,Acetolactate synthase [24],1820 nM
same,Activity,Lolium rigidum [25],42%
same,Activity,Lolium rigidum [26],34%
same,Activity,Lolium rigidum [27],0%
same,Activity,Lolium rigidum [28],2%
same,Ratio,[29],36
same,Activity,Lolium rigidum [30],45%
same,Activity,Lolium rigidum [31],1%
same,Activity,Lolium rigidum [32],46%
same,Activity,Lolium rigidum [33],1%
